Assay results published in patent US7179632B2, “Process for the production of allicin” (Neem Biotech Ltd., priority 2001, dated 2007).

Experiment: Storage stability of allicin in aqueous solution
Format: physicochemical

C=CCS[S+]([O-])CC=C (centres unmarked) [allicin, thio-2-propene-1-sulfinic acid S-allyl ester]
stability in solution (0.5% solution at −40° C., filtered to remove impurities): reasonably stable
stability in solution (concentrations above 0.5% solution in water): extremely unstable
effect of pH on stability (diluted solution, pH controlled to approximately pH 4.5): increases the stability
stability on storage (non-extracted solution diluted to approximately 'it' allicin, stored below −20° C.): stable for several months
stability in solution (solution of up to 1.0% v/v allicin): unstable
